Data set [1] has as its system Mycobacterium tuberculosis. As to the kind of experiment: Antimycobacterial activity against Mycobacterium tuberculosis H37Rv by agar dilution method using double dilution technique. Format: functional.
Data set [2] deals with Vero. As to the kind of experiment: Toxicity against Vero cells at 62.5 ug/ml after 72 hrs by MTT assay. The class given is cell-based. Conditions: chlorocebus sabaeus. A general note: Tetrazolium dyes change colour on reduction, which living cells bring about.

Values after ≈ are worked out from the molar mass of the structure shown.

As usually defined, the MIC is the smallest concentration in the dilution series that meets the test's criterion for growth inhibition. Higher therefore signals a less susceptible organism. `NNC(=O)c1ccncc1` [ISONIAZID] came in with an MIC in data set [1] of 0.73 µM (≈ 0.1 µg/mL).

Regarding `O=[N+]([O-])c1ccc(-c2nn(C(Cc3ccco3)Nc3ccc(S(=O)(=O)c4ccc(NC(Cc5ccco5)n5nc(-c6ccc([N+](=O)[O-])cc6)oc5=S)cc4)cc3)c(=S)o2)cc1` (centres undefined), 0.42 µM (≈ 0.369 µg/mL) was the least that counted as inhibitory in data set [1] (MIC). For the same compound, in data set [2], the Activity result is “Non-toxic”.

For the compound `O=S(=O)(c1ccc(NC(c2ccccc2)n2nc(-c3ccccc3)oc2=S)cc1)c1ccc(NC(c2ccccc2)n2nc(-c3ccccc3)oc2=S)cc1` (centres undefined), the lowest concentration to inhibit growth in data set [1] (MIC) was 1.72 µM (≈ 1.34 µg/mL). In data set [2], the Activity result was “Non-toxic”.

Compound `O=S(=O)(c1ccc(NC(Cc2ccco2)n2nc(COc3ccc4ccccc4c3)oc2=S)cc1)c1ccc(NC(Cc2ccco2)n2nc(COc3ccc4ccccc4c3)oc2=S)cc1` (centres undefined) registered an MIC in data set [1] of 0.1 µM (≈ 0.0949 µg/mL). For the same compound, the Activity result in data set [2] is listed as “Non-toxic”.

`O=S(=O)(c1ccc(NC(c2ccccc2)n2nc(COc3cccc4ccccc34)oc2=S)cc1)c1ccc(NC(c2ccccc2)n2nc(COc3cccc4ccccc34)oc2=S)cc1` (centres undefined) gave an MIC in data set [1] of 0.96 µM (≈ 0.903 µg/mL). Besides, the Activity result in data set [2] is given as “Non-toxic”.

In data set [1], `O=S(=O)(c1ccc(NC(c2ccccc2)n2nc(Cc3ccccc3)oc2=S)cc1)c1ccc(NC(c2ccccc2)n2nc(Cc3ccccc3)oc2=S)cc1` (centres undefined) came in with an MIC of 1.29 µM (≈ 1.04 µg/mL). In addition, the Activity entry in data set [2] is recorded as “Non-toxic”.

Consider `O=S(=O)(c1ccc(NC(c2ccccc2)n2nc(COc3ccccc3)oc2=S)cc1)c1ccc(NC(c2ccccc2)n2nc(COc3ccccc3)oc2=S)cc1` (centres undefined), for which 0.98 µM (≈ 0.824 µg/mL) was the least that counted as inhibitory in data set [1] (MIC). Besides, in data set [2], the Activity result is on record as “Non-toxic”.

In data set [1], `O=S(=O)(c1ccc(NC(Cc2ccco2)n2nc(Cc3ccccc3)oc2=S)cc1)c1ccc(NC(Cc2ccco2)n2nc(Cc3ccccc3)oc2=S)cc1` (centres undefined) registered an MIC of 0.24 µM (≈ 0.196 µg/mL). The Activity result in data set [2] is given as “Non-toxic”.

`O=S(=O)(c1ccc(NC(Cc2ccco2)n2nc(-c3ccccc3)oc2=S)cc1)c1ccc(NC(Cc2ccco2)n2nc(-c3ccccc3)oc2=S)cc1` (centres undefined) yielded an MIC in data set [1] of 0.94 µM (≈ 0.742 µg/mL). For the same compound, in data set [2], the Activity result is “Non-toxic”.

`O=S(=O)(c1ccc(NC(Cc2ccco2)n2nc(-c3ccc(Nc4ccccc4)cc3)oc2=S)cc1)c1ccc(NC(Cc2ccco2)n2nc(-c3ccc(Nc4ccccc4)cc3)oc2=S)cc1` (centres undefined) registered an MIC in data set [1] of 0.66 µM (≈ 0.641 µg/mL). Also, the Activity result in data set [2] is “Non-toxic”.

Take `O=S(=O)(c1ccc(NC(Cc2ccco2)n2nc(COc3ccccc3)oc2=S)cc1)c1ccc(NC(Cc2ccco2)n2nc(COc3ccccc3)oc2=S)cc1` (centres undefined): the MIC in data set [1] was 0.14 µM (≈ 0.119 µg/mL). Besides, the Activity entry in data set [2] is “Non-toxic”.

Compound `O=[N+]([O-])c1ccc(-c2nn(C(Nc3ccc(S(=O)(=O)c4ccc(NC(c5ccccc5)n5nc(-c6ccc([N+](=O)[O-])cc6)oc5=S)cc4)cc3)c3ccccc3)c(=S)o2)cc1` (centres undefined) showed an MIC in data set [1] of 1.94 µM (≈ 1.69 µg/mL). Also, in data set [2], the Activity entry was “Non-toxic”.

In data set [1], `O=S(=O)(c1ccc(NC(Cc2ccco2)n2nc(COc3cccc4ccccc34)oc2=S)cc1)c1ccc(NC(Cc2ccco2)n2nc(COc3cccc4ccccc34)oc2=S)cc1` (centres undefined) returned an MIC of 0.72 µM (≈ 0.683 µg/mL). Also, the Activity result in data set [2] is “Non-toxic”.

In turn, `O=S(=O)(c1ccc(NC(c2ccccc2)n2nc(-c3ccc(Nc4ccccc4)cc3)oc2=S)cc1)c1ccc(NC(c2ccccc2)n2nc(-c3ccc(Nc4ccccc4)cc3)oc2=S)cc1` (centres undefined) returned an MIC in data set [1] of 1.65 µM (≈ 1.59 µg/mL). Moreover, the Activity result in data set [2] is reported as “Non-toxic”.

With `O=S(=O)(c1ccc(NC(c2ccccc2)n2nc(COc3ccc4ccccc4c3)oc2=S)cc1)c1ccc(NC(c2ccccc2)n2nc(COc3ccc4ccccc4c3)oc2=S)cc1` (centres undefined), the MIC in data set [1] came out at 0.42 µM (≈ 0.395 µg/mL). Besides, the Activity result in data set [2] is recorded as “Non-toxic”.

The values are drawn from ChEMBL document CHEMBL1148026, “Oxadiazole mannich bases: synthesis and antimycobacterial activity” (Bioorg Med Chem Lett, 2007).
